Assays:
[1] = biological target: T1, BChE from equine serum (Equus caballus, UniProt P81908); experiment: In vitro BChE inhibition, modified Ellman's method; assay type: biochemical; details: for SI (index selectivity) = IC50 (AChE)/IC50 (BChE): ratio AChE/BChE, higher = more selective to BChE
T1 construct: BChE (from equine serum); purchased Sigma, St. Louis, MO, USA; host or cells: equine serum
Protocol: (§1) The ability of all prepared compounds to inhibit AChE from electric eel (Electrophorus electricus) and BChE from equine serum (both purchased from Sigma, St. Louis, MO, USA) was determined in vitro using a modified Ellman’s method. […] The Ellman’s method is widely used for measuring cholinesterase activity and the effectivity of ChEIs. It is a simple, rapid and direct method to determine SH and –S–S– groups content in proteins. Cholinesterase activity is measured indirectly by quantifying the concentration of 5-thio-2-nitrobenzoic acid (TNB) ion formed in the reaction between disulfide reagent 5,5′-dithiobis-2-nitrobenzoic acid (DTNB) and thiocholine, a product of substrate (i.e., acetylthiocholine, ATCh) hydrolysis catalyzed by cholinesterase.
(§2) All tested compounds were dissolved in DMSO (concentration 0.01 M) and diluted in demineralized water (concentrations 0.001 M and 0.0001 M). The ability of tested compounds to inhibit AChE (from electric eel) and BChE (from equine serum) was determined using the modified Ellman’s method at 25 °C in the presence of phosphate buffered saline (PBS, 0.1 M, pH 7.4) in a glass cuvette with 1 cm optical path. The enzyme activity in total reaction mixture (2 mL) was 0.2 U/mL, the concentration of substrate ATCh 40 μM and the concentration of DTNB 0.1 mM for all reactions. The IC50 value was obtained from the dependence of v0/vi on the concentration of the tested compound (inhibitor), where v0 is the reaction rate of uninhibited reaction and vi is the reaction rate of inhibited reaction (for the given concentration of the inhibitor). First, v0 was determined. Into the cuvette PBS (0.1 M, pH 7.4), DTNB and ATCh were placed. The enzymatic reaction was started by adding the enzyme. […] The measurement was performed in triplicate at least, and average v0 was determined. Then, vi (for the given concentration of the inhibitor) was determined. Into the cuvette DTNB, ATCh, a chosen volume of the suitably diluted inhibitor (to achieve the required concentration of the inhibitor in the total reaction mixture) and a certain volume of PBS (to achieve the total volume of the reaction mixture 2 mL after adding the enzyme) were placed. The enzymatic reaction was started by adding the enzyme. […] For determination of IC50 values, twelve different concentrations of inhibitor were used and each measurement was performed in triplicate at least.

[2] = test system: human monocytic leukemia THP-1 cells; experiment: In vitro cytotoxicity assay (WST-1); assay type: cell-based; details: 24 h, highest tested concentration 30 μM, read-out: tox. IC50
Protocol: The cytotoxicity was evaluated as the IC50 value (compound concentration causing 50% inhibition of cell population proliferation) (see Table 1). […] Based on these observations, it can be concluded that the discussed compounds can be considered as non-toxic agents for subsequent design of novel drugs.
Human monocytic leukemia THP-1 cells were used for in vitro toxicity assay. Cells were obtained from the European Collection of Cell Cultures (ECACC, Salisbury, UK) and routinely cultured in RPMI 1640 (Lonza, Verviers, Belgium) medium supplemented with 10% fetal bovine serum (FBS, Sigma), 2% L-glutamine, 1% penicillin and streptomycin (Lonza, Verviers, Belgium) at 37 °C with 5% CO2. Cells were passaged at approximately one week intervals. The cytotoxicity of the compounds was determined using a WST-1 assay kit (Roche Diagnostics, Mannheim, Germany) according to the manufacturer’s instructions. The tested compounds were dissolved in DMSO and added in five increasing concentrations (0.37, 1.1, 3.3, 10, and 30 μM) to the cell suspension in the culture RPMI 1640 medium. The maximum concentration of DMSO (Sigma) in the assays never exceeded 0.1%. Subsequently, the cells were incubated for 24 h at 37 °C with 5% CO2. For WST-1 assays, cells were seeded into 96-well plates (5 × 10^4 cells/well in 100 μL culture medium) in triplicate in serum-free RPMI 1640 medium, and measurements were taken 24 h after the treatment with the compounds. The median inhibition concentration values, IC50, were deduced through the production of a dose-response curve. All data were evaluated using the GraphPad Prism 5.00 software (GraphPad Software, San Diego, CA, USA).

[3] = biological target: T2, AChE from electric eel (Electrophorus electricus) (Electrophorus electricus, UniProt O42275); experiment: In vitro AChE inhibition, modified Ellman's method; assay type: biochemical
T2 construct: AChE (from electric eel) and BChE (from equine serum); purchased Sigma, St. Louis, MO, USA; host or cells: electric eel (animal source)
T2 sequence (O42275 24-633): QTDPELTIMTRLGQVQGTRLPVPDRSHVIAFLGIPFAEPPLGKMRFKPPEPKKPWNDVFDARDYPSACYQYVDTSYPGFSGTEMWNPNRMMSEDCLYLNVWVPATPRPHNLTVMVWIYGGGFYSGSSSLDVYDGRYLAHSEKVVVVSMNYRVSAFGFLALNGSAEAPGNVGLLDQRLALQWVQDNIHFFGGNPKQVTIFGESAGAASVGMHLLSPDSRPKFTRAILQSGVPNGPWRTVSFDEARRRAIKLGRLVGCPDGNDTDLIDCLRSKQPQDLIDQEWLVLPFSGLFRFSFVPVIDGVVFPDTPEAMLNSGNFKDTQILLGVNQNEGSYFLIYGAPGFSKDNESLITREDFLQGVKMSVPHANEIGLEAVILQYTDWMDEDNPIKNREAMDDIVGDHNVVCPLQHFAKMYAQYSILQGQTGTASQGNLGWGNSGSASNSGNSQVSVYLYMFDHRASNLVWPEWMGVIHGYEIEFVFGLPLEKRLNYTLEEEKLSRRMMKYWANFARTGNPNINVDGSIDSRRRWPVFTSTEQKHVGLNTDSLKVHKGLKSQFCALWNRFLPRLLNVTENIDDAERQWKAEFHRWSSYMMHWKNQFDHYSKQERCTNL
Protocol: as §1, §2

T1 sequence (P81908 whole entry): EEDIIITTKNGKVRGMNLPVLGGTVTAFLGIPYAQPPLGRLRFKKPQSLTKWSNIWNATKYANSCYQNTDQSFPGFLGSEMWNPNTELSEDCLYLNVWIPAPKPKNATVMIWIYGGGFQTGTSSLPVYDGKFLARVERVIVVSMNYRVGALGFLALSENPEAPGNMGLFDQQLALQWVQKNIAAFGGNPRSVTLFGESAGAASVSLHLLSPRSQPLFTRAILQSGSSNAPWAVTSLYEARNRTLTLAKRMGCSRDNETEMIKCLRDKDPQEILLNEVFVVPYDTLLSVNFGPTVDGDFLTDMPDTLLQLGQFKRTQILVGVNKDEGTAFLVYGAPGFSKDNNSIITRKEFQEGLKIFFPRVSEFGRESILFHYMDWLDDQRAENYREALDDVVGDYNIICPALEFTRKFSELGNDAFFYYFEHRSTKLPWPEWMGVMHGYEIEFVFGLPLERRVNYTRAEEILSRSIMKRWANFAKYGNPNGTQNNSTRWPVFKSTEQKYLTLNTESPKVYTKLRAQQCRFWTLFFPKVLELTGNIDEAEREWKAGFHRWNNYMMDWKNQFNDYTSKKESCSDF

Row | SMILES | IC50 [1] [µM] | SI (index selectivity) = IC50 (AChE)/IC50 (BChE) [1] | IC50 [2] [µM] | IC50 [3] [µM] | selectivity to BChE (in words) ([1]; BChE vs AChE)
1 | Cc1ccc(NC(=O)[C@@H]2CCCN2C(=O)OCc2ccccc2)cc1 [Compound 3c, Benzyl (2S)-2-[(4-methylphenyl)carbamoyl]pyrrolidine-1-carboxylate] | 153 ± 2.29 | 0.81 | > 30 | 123.4 ± 0.44 | 
2 | O=C(Nc1ccc(F)cc1)[C@@H]1CCCN1C(=O)OCc1ccccc1 [Compound 4c, Benzyl (2S)-2-[(4-fluorophenyl)carbamoyl]pyrrolidine-1-carboxylate] | 58.1 ± 1.39 | 1.50 | > 30 | 87.2 ± 1 | 
3 | O=C(Nc1ccc(Cl)cc1)[C@@H]1CCCN1C(=O)OCc1ccccc1 [Compound 5c, Benzyl (2S)-2-[(4-chlorophenyl)carbamoyl]pyrrolidine-1-carboxylate] | 147.3 ± 1.18 | 0.52 | > 30 | 77.3 ± 3.8 | 
4 | O=C(Nc1ccc(O)cc1)[C@@H]1CCCN1C(=O)OCc1ccccc1 [Compound 9c, Benzyl (2S)-2-[(4-hydroxyphenyl)carbamoyl]pyrrolidine-1-carboxylate] | 133 ± 0.39 | 0.68 | > 30 | 91.08 ± 0.27 | 
5 | COc1ccccc1NC(=O)[C@@H]1CCCN1C(=O)OCc1ccccc1 [Compound 2a, Benzyl (2S)-2-[(2-methoxyphenyl)carbamoyl]pyrrolidine-1-carboxylate] | 51.5 ± 0.75 | 2.54 | > 30 | 131 ± 1.29 | 
6 | O=C(Nc1ccc(Br)cc1)[C@@H]1CCCN1C(=O)OCc1ccccc1 [Compound 6c, Benzyl (2S)-2-[(4-bromophenyl)carbamoyl]pyrrolidine-1-carboxylate] | 28.2 ± 0.5 | 2.88 | > 30 | 81.32 ± 0.67 | 
7 | O=C(Nc1ccccc1Br)[C@@H]1CCCN1C(=O)OCc1ccccc1 [Compound 6a, Benzyl (2S)-2-[(2-bromophenyl)carbamoyl]pyrrolidine-1-carboxylate] | 27.4 ± 0.85 | 3.07 | > 30 | 84.1 ± 4.39 | greater selectivity to BChE
8 | O=C(Nc1cccc([N+](=O)[O-])c1)[C@@H]1CCCN1C(=O)OCc1ccccc1 [Compound 8b, Benzyl (2S)-2-[(3-nitrophenyl)carbamoyl]pyrrolidine-1-carboxylate] | 55.9 ± 0.63 | 1.16 | > 30 | 65 ± 0.97 | 
9 | O=C(Nc1ccccc1)[C@@H]1CCCN1C(=O)OCc1ccccc1 [Compound 1, Benzyl (2S)-2-(phenylcarbamoyl)pyrrolidine-1-carboxylate] | 55.6 ± 1.01 | 1.91 | > 30 | 106 ± 2.2 | 
10 | O=C(Nc1cccc(F)c1)[C@@H]1CCCN1C(=O)OCc1ccccc1 [Compound 4b, Benzyl (2S)-2-[(3-fluorophenyl)carbamoyl]pyrrolidine-1-carboxylate] | 34.61 ± 0.11 | 2.02 | > 30 | 69.88 ± 0.21 | 
11 | O=C(Nc1cccc(Br)c1)[C@@H]1CCCN1C(=O)OCc1ccccc1 [Compound 6b, Benzyl (2S)-2-[(3-bromophenyl)carbamoyl]pyrrolidine-1-carboxylate] | 47.68 ± 0.08 | 1.56 | > 30 | 74.16 ± 0.2 | 
12 | Cc1ccccc1NC(=O)[C@@H]1CCCN1C(=O)OCc1ccccc1 [Compound 3a, Benzyl (2S)-2-[(2-methylphenyl)carbamoyl]pyrrolidine-1-carboxylate] | 98.3 ± 5.88 | 0.63 | > 30 | 61.9 ± 1.35 | 
13 | O=C(Nc1ccc(C(F)(F)F)cc1)[C@@H]1CCCN1C(=O)OCc1ccccc1 [Compound 7c, Benzyl (2S)-2-{[4-(trifluoromethyl)phenyl]carbamoyl}pyrrolidine-1-carboxylate] | 75.5 ± 2.94 | 1.17 | > 30 | 88.6 ± 1.6 | 
14 | O=C(Nc1cccc(O)c1)[C@@H]1CCCN1C(=O)OCc1ccccc1 [Compound 9b, Benzyl (2S)-2-[(3-hydroxyphenyl)carbamoyl]pyrrolidine-1-carboxylate] | 86.22 ± 0.4 | 1.41 | > 30 | 122 ± 1.38 | 
15 | O=C(Nc1cccc(Cl)c1)[C@@H]1CCCN1C(=O)OCc1ccccc1 [Compound 5b, Benzyl (2S)-2-[(3-chlorophenyl)carbamoyl]pyrrolidine-1-carboxylate] | 64.2 ± 7.14 | 0.75 | > 30 | 48.27 ± 0.11 | 
16 | Cc1cccc(NC(=O)[C@@H]2CCCN2C(=O)OCc2ccccc2)c1 [Compound 3b, Benzyl (2S)-2-[(3-methylphenyl)carbamoyl]pyrrolidine-1-carboxylate] | 115 ± 4.83 | 0.71 | > 30 | 81.06 ± 0.03 | 
17 | O=C(Nc1ccccc1F)[C@@H]1CCCN1C(=O)OCc1ccccc1 [Compound 4a, Benzyl (2S)-2-[(2-fluorophenyl)carbamoyl]pyrrolidine-1-carboxylate] | 60 | 0.86 | > 30 | 51.9 ± 0.76 | 
18 | O=C(Nc1cccc(C(F)(F)F)c1)[C@@H]1CCCN1C(=O)OCc1ccccc1 [Compound 7b, Benzyl (2S)-2-{[3-(trifluoromethyl)phenyl]carbamoyl}pyrrolidine-1-carboxylate] | 39.5 ± 1.4 | 1.75 | > 30 | 68.91 ± 0.06 | 
19 | O=C(Nc1ccc([N+](=O)[O-])cc1)[C@@H]1CCCN1C(=O)OCc1ccccc1 [Compound 8c, Benzyl (2S)-2-[(4-nitrophenyl)carbamoyl]pyrrolidine-1-carboxylate] | 58.75 ± 0.27 | 1.44 | > 30 | 84.52 ± 0.06 | 
20 | COc1ccc(NC(=O)[C@@H]2CCCN2C(=O)OCc2ccccc2)cc1 [Compound 2c, Benzyl (2S)-2-[(4-methoxyphenyl)carbamoyl]pyrrolidine-1-carboxylate] | 117.4 ± 0.45 | 0.93 | > 30 | 109.4 ± 0.22 | 
21 | COc1cccc(NC(=O)[C@@H]2CCCN2C(=O)OCc2ccccc2)c1 [Compound 2b, Benzyl (2S)-2-[(3-methoxyphenyl)carbamoyl]pyrrolidine-1-carboxylate] | 58.47 ± 0.42 | 2.16 | > 30 | 126 ± 2.79 | 
22 | O=C(Nc1ccccc1C(F)(F)F)[C@@H]1CCCN1C(=O)OCc1ccccc1 [Compound 7a, Benzyl (2S)-2-{[2-(trifluoromethyl)phenyl]carbamoyl}pyrrolidine-1-carboxylate] | 44.9 ± 1.66 | 1.63 | > 30 | 73.2 ± 2.88 | 
